Assay results published in ChEMBL document CHEMBL2434907, “Synthesis and SAR studies of benzimidazolone derivatives as histamine H3-receptor antagonists” (Bioorg Med Chem Lett, 2013).

Assays:
[1] = biological target: Cytochrome P450 2D6 (Homo sapiens, UniProt P10635); assay: Inhibition of CYP2D6 in human liver microsomes; type: ADME, Microsome
[2] = biological target: Cytochrome P450 3A4 (Homo sapiens, UniProt P08684); assay: Inhibition of CYP3A4 in human liver microsomes; type: ADME, Microsome
Chain of Cytochrome P450 3A4 (P08684 whole entry): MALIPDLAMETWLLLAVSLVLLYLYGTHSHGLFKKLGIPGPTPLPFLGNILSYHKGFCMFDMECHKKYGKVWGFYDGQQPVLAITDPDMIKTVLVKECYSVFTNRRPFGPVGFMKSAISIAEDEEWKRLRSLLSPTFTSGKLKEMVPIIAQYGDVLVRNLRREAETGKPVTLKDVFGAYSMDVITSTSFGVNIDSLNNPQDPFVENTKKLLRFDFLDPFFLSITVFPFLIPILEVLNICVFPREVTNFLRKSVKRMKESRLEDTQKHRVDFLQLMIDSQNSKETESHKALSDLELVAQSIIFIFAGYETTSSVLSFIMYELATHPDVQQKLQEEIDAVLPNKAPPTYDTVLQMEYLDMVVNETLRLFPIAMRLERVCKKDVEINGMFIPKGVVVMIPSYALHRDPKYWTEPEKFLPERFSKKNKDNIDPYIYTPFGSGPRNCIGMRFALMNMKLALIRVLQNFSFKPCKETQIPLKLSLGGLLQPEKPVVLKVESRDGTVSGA

[3] = biological target: Histamine H3 receptor (Cavia porcellus, UniProt Q9JI35); assay: Displacement of [3H]-N-alpha-methyl histamine from histamine H3 receptor in guinea pig brain homogenates; type: tissue-based
Chain of Histamine H3 receptor (Q9JI35 whole entry): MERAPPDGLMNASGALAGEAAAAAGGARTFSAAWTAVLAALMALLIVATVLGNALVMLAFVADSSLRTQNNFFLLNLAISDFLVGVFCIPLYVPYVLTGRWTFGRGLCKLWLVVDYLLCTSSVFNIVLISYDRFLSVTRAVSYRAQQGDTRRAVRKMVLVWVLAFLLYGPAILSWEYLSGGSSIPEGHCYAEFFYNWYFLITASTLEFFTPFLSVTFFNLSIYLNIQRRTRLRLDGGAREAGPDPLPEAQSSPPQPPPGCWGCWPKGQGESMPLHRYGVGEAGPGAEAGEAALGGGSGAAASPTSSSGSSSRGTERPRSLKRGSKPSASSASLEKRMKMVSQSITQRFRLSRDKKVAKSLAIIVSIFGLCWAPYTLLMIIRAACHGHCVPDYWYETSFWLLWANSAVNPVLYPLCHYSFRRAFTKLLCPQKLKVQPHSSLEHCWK

[4] = AUC in Sprague-Dawley rat at 10 mg/kg, po; type: ADME, organism-based; set-up: dose 10 mg/kg, route oral; conditions: plasma
[5] = Plasma concentration in Sprague-Dawley rat at 10 mg/kg, po after 6 hrs; type: ADME, organism-based; set-up: dose 10 mg/kg, route oral

Chain of Cytochrome P450 2D6 (P10635 whole entry): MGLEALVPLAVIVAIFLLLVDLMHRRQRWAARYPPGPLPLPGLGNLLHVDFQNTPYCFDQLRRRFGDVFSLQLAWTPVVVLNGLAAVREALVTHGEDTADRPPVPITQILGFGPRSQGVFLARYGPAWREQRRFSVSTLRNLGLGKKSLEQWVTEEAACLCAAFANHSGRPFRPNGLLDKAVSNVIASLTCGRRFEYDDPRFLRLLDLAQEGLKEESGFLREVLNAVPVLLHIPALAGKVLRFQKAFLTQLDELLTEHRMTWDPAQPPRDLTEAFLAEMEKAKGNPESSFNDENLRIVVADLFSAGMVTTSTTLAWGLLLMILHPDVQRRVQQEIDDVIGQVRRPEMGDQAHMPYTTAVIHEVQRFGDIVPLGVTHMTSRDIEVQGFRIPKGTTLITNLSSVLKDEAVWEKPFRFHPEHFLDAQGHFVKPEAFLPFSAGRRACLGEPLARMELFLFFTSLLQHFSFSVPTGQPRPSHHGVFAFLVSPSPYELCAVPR

**Q.** With `Nc1cc(CN2CCC(C(=O)N3CCC(n4c(=O)n(CCN5CCOCC5)c5ccccc54)CC3)CC2)ccn1` as the molecule, how does the IC50 [1] read?
**A.** > 30 µM

**Q.** What about the IC50 [2] of the same molecule?
**A.** 30 µM

**Q.** For `Nc1cc(CN2CCC(C(=O)N3CCC(n4c(=O)n(Cc5ccccc5)c5cc(F)ccc54)CC3)CC2)ccn1`, which Ki [3] is on record?
**A.** 0.006 µM

**Q.** Which AUC [4] does the source give for `Nc1cc(CN2CCC(C(=O)N3CCC(n4c(=O)n(CC(F)(F)F)c5cc(F)ccc54)CC3)CC2)ccn1` here?
**A.** 1.2 µM·h

**Q.** What about the IC50 [1] of the same molecule?
**A.** > 30 µM

**Q.** And the IC50 [2]?
**A.** > 30 µM

**Q.** And the concentration at 6 h [5]?
**A.** 130 nM

**Q.** Which results are given for `Nc1cc(CN2CCC(C(=O)N3CCC(n4c(=O)[nH]c5ccccc54)CC3)CC2)ccn1`?
**A.** Ki [3]: 0.0006 µM; IC50 [1]: > 30 µM; IC50 [2]: > 30 µM

**Q.** For `Nc1cc(CN2CCC(C(=O)N3CCC(n4c(=O)n(C5CCCC5)c5cc(F)ccc54)CC3)CC2)ccn1`, which AUC [4] is on record?
**A.** 1.8 µM·h

**Q.** And the IC50 [1]?
**A.** > 30 µM

**Q.** What about the IC50 [2] of the same molecule?
**A.** 22 µM

**Q.** What about the concentration at 6 h [5] of the same molecule?
**A.** 200 nM

**Q.** For `COCCn1c(=O)n(C2CCN(C(=O)C3CCN(Cc4ccnc(N)c4)CC3)CC2)c2ccccc21`, which AUC [4] is on record?
**A.** 0.1 µM·h

**Q.** What about the IC50 [1] of the same molecule?
**A.** > 30 µM

**Q.** And the IC50 [2]?
**A.** > 30 µM

**Q.** With `Nc1cc(CN2CCC(C(=O)N3CCC(n4c(=O)n(-c5ccccn5)c5cc(F)ccc54)CC3)CC2)ccn1` as the molecule, how does the AUC [4] read?
**A.** 10.9 µM·h

**Q.** What about the IC50 [1] of the same molecule?
**A.** > 30 µM

**Q.** What about the IC50 [2] of the same molecule?
**A.** > 30 µM

**Q.** And the concentration at 6 h [5]?
**A.** 1200 nM

**Q.** Which Ki [3] does the source give for `CC(c1ccc(Cl)c(Cl)c1)n1c(=O)n(C2CCN(C(=O)C3CCN(Cc4ccnc(N)c4)CC3)CC2)c2ccccc21` (stereo unspecified) here?
**A.** 0.077 µM

**Q.** For `Nc1cc(CN2CCC(C(=O)N3CCC(n4c(=O)n(-c5cc(F)cc(F)c5)c5cc(F)ccc54)CC3)CC2)ccn1`, which AUC [4] is on record?
**A.** 12.9 µM·h

**Q.** What about the IC50 [1] of the same molecule?
**A.** > 30 µM

**Q.** And the IC50 [2]?
**A.** > 30 µM

**Q.** And the concentration at 6 h [5]?
**A.** 1850 nM

**Q.** What does the source list for `Nc1cc(CN2CCC(C(=O)N3CCC(n4c(=O)n(CCCC(F)(F)F)c5cc(F)ccc54)CC3)CC2)ccn1`?
**A.** AUC [4]: 4.1 µM·h; IC50 [1]: > 30 µM; IC50 [2]: 30 µM; concentration at 6 h [5]: 510 nM

**Q.** Which Ki [3] does the source give for `Nc1cc(CN2CCC(C(=O)N3CCC(n4c(=O)n(Cc5ccc(Cl)cc5)c5ccccc54)CC3)CC2)ccn1` here?
**A.** 0.012 µM

**Q.** With `Nc1cc(CN2CCC(C(=O)N3CCC(n4c(=O)n(CC5CCCCC5)c5cc(F)ccc54)CC3)CC2)ccn1` as the molecule, how does the IC50 [1] read?
**A.** > 30 µM

**Q.** And the IC50 [2]?
**A.** > 30 µM

**Q.** With `Nc1cc(CN2CCC(C(=O)N3CCC(n4c(=O)n(CC5CC5)c5cc(F)ccc54)CC3)CC2)ccn1` as the molecule, how does the AUC [4] read?
**A.** 3.5 µM·h

**Q.** What about the IC50 [1] of the same molecule?
**A.** > 30 µM

**Q.** What about the IC50 [2] of the same molecule?
**A.** 30 µM

**Q.** And the concentration at 6 h [5]?
**A.** 260 nM

**Q.** For `Nc1cc(CN2CCC(C(=O)N3CCC(n4c(=O)n(CCN5CCOCC5)c5cc(F)ccc54)CC3)CC2)ccn1`, which Ki [3] is on record?
**A.** 0.0023 µM

**Q.** And the IC50 [1]?
**A.** > 30 µM

**Q.** And the IC50 [2]?
**A.** > 30 µM

**Q.** With `CC(c1ccc(-c2ccc(F)cc2)cc1)n1c(=O)n(C2CCN(C(=O)C3CCN(Cc4ccnc(N)c4)CC3)CC2)c2ccccc21` (stereo unspecified) as the molecule, how does the Ki [3] read?
**A.** 0.42 µM

**Q.** For `Nc1cc(CN2CCC(C(=O)N3CCC(n4c(=O)n(-c5ncccn5)c5cc(F)ccc54)CC3)CC2)ccn1`, which IC50 [1] is on record?
**A.** > 30 µM

**Q.** What about the IC50 [2] of the same molecule?
**A.** > 30 µM

**Q.** What does the source list for `CC(C)Cn1c(=O)n(C2CCN(C(=O)C3CCN(Cc4ccnc(N)c4)CC3)CC2)c2ccc(F)cc21`?
**A.** IC50 [1]: > 30 µM; IC50 [2]: > 30 µM

**Q.** Which results are given for `Nc1cc(CN2CCC(C(=O)N3CCC(n4c(=O)n(-c5cnccn5)c5cc(F)ccc54)CC3)CC2)ccn1`?
**A.** AUC [4]: 3.7 µM·h; Ki [3]: 0.0005 µM; IC50 [1]: > 30 µM; IC50 [2]: > 30 µM; concentration at 6 h [5]: 500 nM

**Q.** Which IC50 [1] does the source give for `Nc1cc(CN2CCC(C(=O)N3CCC(n4c(=O)n(CCCC(F)(F)F)c5ccccc54)CC3)CC2)ccn1` here?
**A.** > 30 µM

**Q.** What about the IC50 [2] of the same molecule?
**A.** > 30 µM

**Q.** Which AUC [4] does the source give for `Nc1cc(CN2CCC(C(=O)N3CCC(n4c(=O)n(-c5ccc(F)c(F)c5)c5cc(F)ccc54)CC3)CC2)ccn1` here?
**A.** 5.1 µM·h

**Q.** And the IC50 [1]?
**A.** > 30 µM

**Q.** And the IC50 [2]?
**A.** > 30 µM

**Q.** What about the concentration at 6 h [5] of the same molecule?
**A.** 680 nM
